Laboratory results from US9695155B2, “Herbicidal substituted pyrimidinyloxy benzene compounds” (E. I. DU PONT DE NEMOURS AND COMPANY, priority 2013, dated 2017).

How the values were obtained:
chickweed = assay: Test C postemergence; assay type: in vivo, Stellaria media; settings: for Plant response rating (0 to 100), Chickweed: 16 g ai/ha, 0 is no effect, 100 is complete control; for Chickweed plant response rating: 31 g ai/ha, 13 to 15 days; for Chickweed plant response rating / Plant response rating, Chickweed: scale 0 to 100 (0 no effect, 100 complete control)
How it was run: (§1)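 Sown in loam/sand → sprayed pre-emergence; or grown to 1–4 leaves in peat mix → sprayed post-emergence. Same solvent/surfactant formulation both ways. Greenhouse 13–15 d. Score 0–100 visual.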

wild oat = assay: Test C postemergence; assay type: in vivo, Avena fatua; settings: for Plant response rating (0 to 100), Oat, Wild: 16 g ai/ha, 0 is no effect, 100 is complete control; for Oat, Wild plant response rating: 31 g ai/ha, 13 to 15 days; for Oat, Wild plant response rating / Plant response rating, Oat, Wild: scale 0 to 100 (0 no effect, 100 complete control)
How it was run: as §1

morningglory = assay: Test C postemergence; assay type: in vivo, Ipomoea coccinea; settings: for Plant response rating (0 to 100), Morningglory: 16 g ai/ha, 0 is no effect, 100 is complete control; for Morningglory plant response rating: 31 g ai/ha, 13 to 15 days; for Morningglory plant response rating / Plant response rating, Morningglory: scale 0 to 100 (0 no effect, 100 complete control)
How it was run: as §1

yellow nutsedge = assay: Test C postemergence; assay type: in vivo, Cyperus esculentus; settings: for Plant response rating (0 to 100), Nutsedge, Yellow: 16 g ai/ha, 0 is no effect, 100 is complete control; for Nutsedge, Yellow plant response rating: 31 g ai/ha, 13 to 15 days; for Nutsedge, Yellow plant response rating / Plant response rating, Nutsedge, Yellow: scale 0 to 100 (0 no effect, 100 complete control)
How it was run: as §1

sedge, umbrella = assay: Test B flooded paddy test; assay type: in vivo, Cyperus difformis; settings: Flood, 250 g ai/ha; 0 to 100 scale where 0 is no effect and 100 is complete control
How it was run: (§2)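 Greenhouse flooded-pot test: compounds dosed into 3 cm standing water over 2-leaf plants, flood held constant. Rated visually after 13–15 days on 0–100 (complete control = 100); a dash marks no test result.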

lambsquarters = assay: Test C postemergence; assay type: in vivo, Chenopodium album; settings: for Plant response rating (0 to 100), Lambsquarters: 16 g ai/ha, 0 is no effect, 100 is complete control; for Lambsquarters plant response rating: 31 g ai/ha, 13 to 15 days; for Lambsquarters plant response rating / Plant response rating, Lambsquarters: scale 0 to 100 (0 no effect, 100 complete control)
How it was run: as §1

barnyardgrass [1] = assay: Test A postemergence; assay type: in vivo, Echinochloa crus-galli; settings: 0 to 100 scale where 0 is no effect and 100 is complete control; for Barnyardgrass plant response rating: 125 g ai/ha; for Plant response rating, Barnyardgrass: 500 g ai/ha
How it was run: (§3)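 Greenhouse pot test, loam/sand soil. Formulation: non-phytotoxic solvent mix plus surfactant. Pre: directed spray onto soil after sowing. Post: plants at 1–2 leaf, 2–10 cm. Rated visually vs untreated controls at ~10 d, 0 (no effect) to 100 (complete control).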

barnyardgrass [2] = assay: Test C postemergence; assay type: in vivo, Echinochloa crus-galli; settings: for Plant response rating (0 to 100), Barnyardgrass: 16 g ai/ha, 0 is no effect, 100 is complete control; for Barnyardgrass plant response rating: 31 g ai/ha, 13 to 15 days; for Barnyardgrass plant response rating / Plant response rating, Barnyardgrass: scale 0 to 100 (0 no effect, 100 complete control)
How it was run: as §1

large (Lg) crabgrass [3] = assay: Test C postemergence; assay type: in vivo, Digitaria sanguinalis; settings: for Plant response rating (0 to 100), Crabgrass, Large: 16 g ai/ha, 0 is no effect, 100 is complete control; for Crabgrass, Large plant response rating: 31 g ai/ha, 13 to 15 days; for Crabgrass, Large plant response rating / Plant response rating, Crabgrass, Large: scale 0 to 100 (0 no effect, 100 complete control)
How it was run: as §1

barnyardgrass [4] = assay: Test B flooded paddy test; assay type: in vivo, Echinochloa crus-galli; settings: Flood, 250 g ai/ha; 0 to 100 scale where 0 is no effect and 100 is complete control
How it was run: as §2

rice = assay: Test B flooded paddy test; assay type: in vivo, Oryza sativa; settings: Flood, 250 g ai/ha; 0 to 100 scale where 0 is no effect and 100 is complete control
How it was run: as §2

large (Lg) crabgrass [5] = assay: Test A preemergence; assay type: in vivo, Digitaria sanguinalis; settings: for Crabgrass, Large plant response rating: 500 g ai/ha
How it was run: as §3

pigweed = assay: Test A postemergence; assay type: in vivo, Amaranthus retroflexus; settings: 0 to 100 scale where 0 is no effect and 100 is complete control; for Pigweed plant response rating: 125 g ai/ha; for Plant response rating, Pigweed: 500 g ai/ha
How it was run: as §3

giant foxtail = assay: Test C postemergence; assay type: in vivo, Setaria faberii; settings: for Plant response rating (0 to 100), Foxtail, Giant: 16 g ai/ha, 0 is no effect, 100 is complete control; for Foxtail, Giant plant response rating: 31 g ai/ha, 13 to 15 days; for Foxtail, Giant plant response rating / Plant response rating, Foxtail, Giant: scale 0 to 100 (0 no effect, 100 complete control)
How it was run: as §1

barnyardgrass [6] = assay: Test A preemergence; assay type: in vivo, Echinochloa crus-galli; settings: for Barnyardgrass plant response rating: 500 g ai/ha
How it was run: as §3

[7] = 125 g ai/ha, postemergence, visual rating
[8] = 125 g ai/ha, 0 to 100 scale where 0 is no effect and 100 is complete control
[9] = 0 to 100 scale where 0 is no effect and 100 is complete control

FC(F)c1cccc(Oc2ncc(Br)cn2)c1-n1cc(C(F)(F)F)cn1 [Compound 163]
Plant response rating (0 to 100), Chickweed (chickweed; postemergence): 40 | Chickweed plant response rating (chickweed; postemergence, visual rating): 80 | Plant response rating, Chickweed (chickweed; [7]): 95 | Plant response rating, Chickweed (chickweed; Postemergence, 62 g ai/ha): 80 | Plant response rating (0 to 100), Oat, Wild (wild oat; postemergence): 0 | Oat, Wild plant response rating (wild oat; postemergence, visual rating): 5 | Plant response rating, Oat, Wild (wild oat; [7]): 20 | Plant response rating, Oat, Wild (wild oat; Postemergence, 62 g ai/ha): 10 | Plant response rating (0 to 100), Morningglory (morningglory; postemergence): 20 | Morningglory plant response rating (morningglory; postemergence, visual rating): 50 | Plant response rating, Morningglory (morningglory; [7]): 90 | Plant response rating, Morningglory (morningglory; Postemergence, 62 g ai/ha): 65 | Plant response rating (0 to 100), Nutsedge, Yellow (yellow nutsedge; postemergence): 5 | Nutsedge, Yellow plant response rating (yellow nutsedge; postemergence, visual rating): 5 | Plant response rating, Nutsedge, Yellow (yellow nutsedge; [7]): 5 | Plant response rating, Nutsedge, Yellow (yellow nutsedge; Postemergence, 62 g ai/ha): 5 | Plant response rating, Sedge, Umbrella (sedge, umbrella): 90 | Plant response rating (0 to 100), Lambsquarters (lambsquarters; postemergence): 60 | Lambsquarters plant response rating (lambsquarters; postemergence, visual rating): 80 | Plant response rating, Lambsquarters (lambsquarters; [7]): 95 | Plant response rating, Lambsquarters (lambsquarters; Postemergence, 62 g ai/ha): 85 | Barnyardgrass plant response rating (barnyardgrass [1]): 30 | Plant response rating, Barnyardgrass (barnyardgrass [1]): 100 | Plant response rating (0 to 100), Barnyardgrass (barnyardgrass [2]; postemergence): 5 | Barnyardgrass plant response rating (barnyardgrass [2]; postemergence, visual rating): 5 | Plant response rating, Barnyardgrass (barnyardgrass [2]; [7]): 5 | Plant response rating, Barnyardgrass (barnyardgrass [2]; Postemergence, 62 g ai/ha): 5 | Plant response rating (0 to 100), Crabgrass, Large (large (Lg) crabgrass [3]; postemergence): 5 | Crabgrass, Large plant response rating (large (Lg) crabgrass [3]; postemergence, visual rating): 5 | Plant response rating, Crabgrass, Large (large (Lg) crabgrass [3]; [7]): 10 | Plant response rating, Crabgrass, Large (large (Lg) crabgrass [3]; Postemergence, 62 g ai/ha): 10 | Plant response rating, Barnyardgrass (barnyardgrass [4]): 0 | Plant response rating, Rice (rice): 25 | Plant response rating, Crabgrass, Large (large (Lg) crabgrass [5]; [8]): 100 | Crabgrass, Large plant response rating (large (Lg) crabgrass [5]; [9]): 100 | Pigweed plant response rating (pigweed): 100 | Plant response rating, Pigweed (pigweed): 100 | Plant response rating (0 to 100), Foxtail, Giant (giant foxtail; postemergence): 5 | Foxtail, Giant plant response rating (giant foxtail; postemergence, visual rating): 5 | Plant response rating, Foxtail, Giant (giant foxtail; [7]): 10 | Plant response rating, Foxtail, Giant (giant foxtail; Postemergence, 62 g ai/ha): 10 | Plant response rating, Barnyardgrass (barnyardgrass [6]; [8]): 50 | Barnyardgrass plant response rating (barnyardgrass [6]; [9]): 100

FC(F)(F)c1cnn(-c2c(Br)cccc2Oc2ncc(Cl)cn2)c1 [Compound 191]
Plant response rating (0 to 100), Chickweed (chickweed; postemergence): 10 | Chickweed plant response rating (chickweed; postemergence, visual rating): 80 | Plant response rating, Chickweed (chickweed; [7]): 98 | Plant response rating, Chickweed (chickweed; Postemergence, 62 g ai/ha): 80 | Plant response rating (0 to 100), Oat, Wild (wild oat; postemergence): 5 | Oat, Wild plant response rating (wild oat; postemergence, visual rating): 5 | Plant response rating, Oat, Wild (wild oat; [7]): 10 | Plant response rating, Oat, Wild (wild oat; Postemergence, 62 g ai/ha): 5 | Plant response rating (0 to 100), Morningglory (morningglory; postemergence): 40 | Morningglory plant response rating (morningglory; postemergence, visual rating): 85 | Plant response rating, Morningglory (morningglory; [7]): 50 | Plant response rating, Morningglory (morningglory; Postemergence, 62 g ai/ha): 85 | Plant response rating (0 to 100), Nutsedge, Yellow (yellow nutsedge; postemergence): 0 | Nutsedge, Yellow plant response rating (yellow nutsedge; postemergence, visual rating): 0 | Plant response rating, Nutsedge, Yellow (yellow nutsedge; [7]): 5 | Plant response rating, Nutsedge, Yellow (yellow nutsedge; Postemergence, 62 g ai/ha): 5 | Plant response rating, Sedge, Umbrella (sedge, umbrella): 95 | Plant response rating (0 to 100), Lambsquarters (lambsquarters; postemergence): 85 | Lambsquarters plant response rating (lambsquarters; postemergence, visual rating): 60 | Plant response rating, Lambsquarters (lambsquarters; [7]): 95 | Plant response rating, Lambsquarters (lambsquarters; Postemergence, 62 g ai/ha): 75 | Barnyardgrass plant response rating (barnyardgrass [1]): 50 | Plant response rating, Barnyardgrass (barnyardgrass [1]): 90 | Plant response rating (0 to 100), Barnyardgrass (barnyardgrass [2]; postemergence): 10 | Barnyardgrass plant response rating (barnyardgrass [2]; postemergence, visual rating): 10 | Plant response rating, Barnyardgrass (barnyardgrass [2]; [7]): 15 | Plant response rating, Barnyardgrass (barnyardgrass [2]; Postemergence, 62 g ai/ha): 15 | Plant response rating (0 to 100), Crabgrass, Large (large (Lg) crabgrass [3]; postemergence): 5 | Crabgrass, Large plant response rating (large (Lg) crabgrass [3]; postemergence, visual rating): 5 | Plant response rating, Crabgrass, Large (large (Lg) crabgrass [3]; [7]): 10 | Plant response rating, Crabgrass, Large (large (Lg) crabgrass [3]; Postemergence, 62 g ai/ha): 5 | Plant response rating, Barnyardgrass (barnyardgrass [4]): 40 | Plant response rating, Rice (rice): 0 | Crabgrass, Large plant response rating (0 to 100 scale) (large (Lg) crabgrass [5]; 125 g ai/ha): 100 | Crabgrass, Large plant response rating (large (Lg) crabgrass [5]; [9]): 100 | Pigweed plant response rating (pigweed): 100 | Plant response rating, Pigweed (pigweed): 100 | Plant response rating (0 to 100), Foxtail, Giant (giant foxtail; postemergence): 10 | Foxtail, Giant plant response rating (giant foxtail; postemergence, visual rating): 10 | Plant response rating, Foxtail, Giant (giant foxtail; [7]): 15 | Plant response rating, Foxtail, Giant (giant foxtail; Postemergence, 62 g ai/ha): 10 | Barnyardgrass plant response rating (0 to 100 scale, 0 is no effect, 100 is complete control) (barnyardgrass [6]; 125 g ai/ha): 70 | Barnyardgrass plant response rating (barnyardgrass [6]; [9]): 100
